The values below come from patent US10800730B2, “Complex and structurally diverse compounds” (The Board of Trustees of the University of Illinois, priority 2012, dated 2020).

Broadly, the IC50 is the concentration that gives 50% inhibition.

The test system of test [1] is U-937 (lymphoma). Put plainly: 72-hour IC50 toward U-937 cancer cell line. It is filed as cell-based. As to conditions: Homo sapiens. The text has this: (§1) Compounds prepared according to the methods described herein have been screened for activity against various cancer cell lines.
In test [2] the test system is HeLa (cervical). Put plainly: 72-hour IC50 toward HeLa cancer cell line. Type of test: cell-based. As to conditions: Homo sapiens.
Source text: as §1

Test [3] concerns H1299 (NSC lung). Put plainly: 72-hour IC50 toward H1299 cancer cell line. Type of test: cell-based. The note with it: Homo sapiens, NCI-H1299.
Source text: as §1

For test [4], the system named is MCF7 (breast). Put plainly: 72-hour IC50 toward MCF7 cancer cell line. Type of test: cell-based. The note with it: Homo sapiens.
Source text: as §1

In test [5] the test system is B16F10 (melanoma). Kind of test: 72-hour IC50 toward B16F10 cancer cell line. Type of test: cell-based. As to conditions: Mus musculus, B16-F10.
Source text: as §1

The subject of test [6] is EL-4 (lymphoma). Kind of test: 72-hour IC50 toward EL-4 cancer cell line. Type of test: cell-based.
Source text: as §1

For test [7], the system named is A549 (lung). Kind of test: 72-hour IC50 toward A549 cancer cell line. It is filed as cell-based. The note with it: Homo sapiens.
Source text: as §1

Test [8] has as its system caspase. Kind of test: Western blot for caspase activation. Type of test: cell-based. The note with it: Western blot (FIG. 11). In general terms: A western blot detects proteins with antibodies after separation by electrophoresis.
Test [9] relates to EL-4 syngeneic mouse model. Put plainly: Tumor volume in EL-4 syngeneic mouse model. Type of test: in vivo. The note with it: 2 treatments at 30 mg/kg over one week and a final treatment at 20 mg/kg after the first week, p=0.023, n=8.
The subject of test [10] is U-937 cells. Kind of test: Non-apoptotic cell death of U-937 cells. It is filed as cell-based. The note with it: U-937 cells (FIG. 12). From the text: FIG. 12. Non-apoptotic cell death of U-937 cells by compound GA-4.

As for `C=C1C[C@]23C[C@@]1(O)CC[C@H]2[C@@]12C=CC(=O)C(C)(C(=O)O1)[C@H]2[C@@H]3C(=O)OC` [GA-4], the IC50 in [1] worked out at 560 ± 180 nM; in [2] it was 1140 ± 30 nM; in [3], 2400 ± 800 nM; in [4] it was 4800 ± 1300 nM; in [5], 1000 ± 400 nM; in [6], 850 ± 90 nM. Besides, the IC50 in [7] worked out at 5900 ± 50 nM. The caspase activation entry in [8] was “lack of caspase activation”. In addition, the “reduction in tumor volume” value in test [9] came out at 43%. In addition, the non-apoptotic cell death entry in test [10] is on record as “remarkable amounts of non-apoptotic cell death”.
Take `COC(=O)[C@H]1[C@@H]2C3(C)C(=O)C=C[C@@]2(OC3=O)[C@@H]2CC[C@@]3(CBr)C[C@]21CC3=O` [GA-81]: the IC50 in test [1] was determined as 1780 ± 90 nM; in test [2], 4900 ± 90 nM; in [7] it was 4500 ± 90 nM.
